Data as given in PubChem BioAssay AID1963858 (Molecular Pharmacology Branch, DTP, NCI, 2024).
pIC50: −log10 of the molar value.

Test system: HOP-62 multicell spheroids with HUVEC/MSC, viability
Test: Anticancer human tumor HOP-62 cell line growth inhibition [KRAS2];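 further: viability read after a week of compound exposure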;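 on viability, T/C: 100% = DMSO vehicle-treated spheroids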
Conditions: for pIC50: curve of first compound; for viability, T/C: stronger effect = lower value
How it was run: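 Combination screen of spheroid viability in tumor-cell co-cultures with endothelial (HUVEC) and mesenchymal stem cell stroma. Each agent was tested in half-log dilutions, topping at clinical Cmax or at 10 microM without a known Cmax.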

[1] = second compound 0.1 µM, first compound 0.000316 µM
[2] = second compound 0.1 µM, first compound 0.001 µM
[3] = second compound 0.1 µM, first compound 0.00316 µM
[4] = second compound 0.1 µM, first compound 0.01 µM
[5] = second compound 0.1 µM, first compound 0.0316 µM
[6] = second compound 0.316 µM, first compound 0.000316 µM
[7] = second compound 0.316 µM, first compound 0.001 µM
[8] = second compound 0.316 µM, first compound 0.00316 µM
[9] = second compound 0.316 µM, first compound 0.01 µM
[10] = second compound 0.316 µM, first compound 0.0316 µM
[11] = second compound 1 µM, first compound 0.000316 µM
[12] = second compound 1 µM, first compound 0.001 µM
[13] = second compound 1 µM, first compound 0.00316 µM
[14] = second compound 1 µM, first compound 0.01 µM
[15] = second compound 1 µM, first compound 0.0316 µM
[16] = second compound 3.16 µM, first compound 0.000316 µM
[17] = second compound 3.16 µM, first compound 0.001 µM
[18] = second compound 3.16 µM, first compound 0.00316 µM
[19] = second compound 3.16 µM, first compound 0.01 µM
[20] = second compound 3.16 µM, first compound 0.0316 µM
[21] = second compound 10 µM, first compound 0.000316 µM
[22] = second compound 10 µM, first compound 0.001 µM
[23] = second compound 10 µM, first compound 0.00316 µM
[24] = second compound 10 µM, first compound 0.01 µM
[25] = second compound 10 µM, first compound 0.0316 µM
[26] = second compound 0.1 µM, first compound 0.1 µM
[27] = second compound 0.316 µM, first compound 0.1 µM
[28] = second compound 1 µM, first compound 0.1 µM
[29] = second compound 3.16 µM, first compound 0.1 µM
[30] = second compound 10 µM, first compound 0.1 µM

Q: CC(=O)Nc1cccc(-n2c(=O)n(C3CC3)c(=O)c3c(Nc4ccc(I)cc4F)n(C)c(=O)c(C)c32)c1 + COc1cc2nc(C)nc(NC(C)c3cc(N)cc(C(F)(F)F)c3)c2cc1OC1CCOC1 was tested. Which pIC50 (second compound 0.1 µM) did it give?
A: Its pIC50 is 8.60.

Q: What about the pIC50 (second compound 0.316 µM) of the same compound?
A: The pIC50 was 8.52.

Q: What about the pIC50 (second compound 1 µM) of the same compound?
A: The pIC50 was 8.70.

Q: What about the pIC50 (second compound 3.16 µM) of the same compound?
A: Its pIC50 is 9.31.

Q: And the pIC50 (second compound 10 µM)?
A: The pIC50 was greater than 10.00.

Q: And the viability, T/C (second compound 0.1 µM, first compound 0.0001 µM)?
A: The viability, T/C was 111%.

Q: What about the viability, T/C [1] of the same compound?
A: Its viability, T/C is 79%.

Q: What about the viability, T/C [2] of the same compound?
A: The viability, T/C was 77.8%.

Q: And the viability, T/C [3]?
A: Its viability, T/C is 42.5%.

Q: What about the viability, T/C [4] of the same compound?
A: The viability, T/C was 25.5%.

Q: And the viability, T/C [5]?
A: The viability, T/C was 23.8%.

Q: And the viability, T/C (second compound 0.316 µM, first compound 0.0001 µM)?
A: Its viability, T/C is 85.2%.

Q: And the viability, T/C [6]?
A: The viability, T/C was 91.4%.

Q: What about the viability, T/C [7] of the same compound?
A: Its viability, T/C is 79.9%.

Q: And the viability, T/C [8]?
A: The viability, T/C was 49.2%.

Q: And the viability, T/C [9]?
A: Its viability, T/C is 24.9%.

Q: What about the viability, T/C [10] of the same compound?
A: Its viability, T/C is 24.5%.

Q: And the viability, T/C (second compound 1 µM, first compound 0.0001 µM)?
A: The viability, T/C was 84.1%.

Q: What about the viability, T/C [11] of the same compound?
A: The viability, T/C was 75.8%.

Q: And the viability, T/C [12]?
A: Its viability, T/C is 75.5%.

Q: What about the viability, T/C [13] of the same compound?
A: Its viability, T/C is 33.6%.

Q: And the viability, T/C [14]?
A: Its viability, T/C is 24.9%.

Q: What about the viability, T/C [15] of the same compound?
A: The viability, T/C was 25.2%.

Q: What about the viability, T/C (second compound 3.16 µM, first compound 0.0001 µM) of the same compound?
A: Its viability, T/C is 58.1%.

Q: And the viability, T/C [16]?
A: The viability, T/C was 50.5%.

Q: What about the viability, T/C [17] of the same compound?
A: The viability, T/C was 45.8%.

Q: What about the viability, T/C [18] of the same compound?
A: The viability, T/C was 29.2%.

Q: And the viability, T/C [19]?
A: The viability, T/C was 21.9%.

Q: What about the viability, T/C [20] of the same compound?
A: The viability, T/C was 22.7%.

Q: What about the viability, T/C (second compound 10 µM, first compound 0.0001 µM) of the same compound?
A: The viability, T/C was 39.6%.

Q: What about the viability, T/C [21] of the same compound?
A: The viability, T/C was 33.7%.

Q: And the viability, T/C [22]?
A: The viability, T/C was 31.4%.

Q: And the viability, T/C [23]?
A: Its viability, T/C is 27.8%.

Q: What about the viability, T/C [24] of the same compound?
A: The viability, T/C was 25.3%.

Q: And the viability, T/C [25]?
A: The viability, T/C was 22.1%.

Q: How did the pIC50 (second compound 0.1 µM) turn out when CC(C)n1nc(-c2ccc3oc(N)nc3c2)c2c(N)ncnc21 + COc1cc2nc(C)nc(NC(C)c3cc(N)cc(C(F)(F)F)c3)c2cc1OC1CCOC1 was run?
A: The pIC50 was 8.49.

Q: What about the pIC50 (second compound 0.316 µM) of the same compound?
A: The pIC50 was 8.63.

Q: What about the pIC50 (second compound 1 µM) of the same compound?
A: The pIC50 was 8.74.

Q: What about the pIC50 (second compound 3.16 µM) of the same compound?
A: Its pIC50 is greater than 9.50.

Q: What about the pIC50 (second compound 10 µM) of the same compound?
A: Its pIC50 is greater than 9.50.

Q: And the viability, T/C [1]?
A: Its viability, T/C is 103%.

Q: And the viability, T/C [2]?
A: Its viability, T/C is 77%.

Q: What about the viability, T/C [3] of the same compound?
A: The viability, T/C was 50.4%.

Q: And the viability, T/C [4]?
A: Its viability, T/C is 32.2%.

Q: What about the viability, T/C [5] of the same compound?
A: Its viability, T/C is 18.1%.

Q: And the viability, T/C [26]?
A: The viability, T/C was 15.5%.

Q: And the viability, T/C [6]?
A: Its viability, T/C is 82.5%.

Q: And the viability, T/C [7]?
A: Its viability, T/C is 64.2%.

Q: What about the viability, T/C [8] of the same compound?
A: The viability, T/C was 46%.

Q: What about the viability, T/C [9] of the same compound?
A: Its viability, T/C is 26.9%.

Q: And the viability, T/C [10]?
A: Its viability, T/C is 21.4%.

Q: What about the viability, T/C [27] of the same compound?
A: The viability, T/C was 13.8%.

Q: What about the viability, T/C [11] of the same compound?
A: Its viability, T/C is 86.7%.

Q: And the viability, T/C [12]?
A: Its viability, T/C is 67.1%.

Q: And the viability, T/C [13]?
A: The viability, T/C was 32%.

Q: And the viability, T/C [14]?
A: The viability, T/C was 23.9%.

Q: And the viability, T/C [15]?
A: Its viability, T/C is 16.5%.

Q: And the viability, T/C [28]?
A: The viability, T/C was 11.3%.

Q: And the viability, T/C [16]?
A: The viability, T/C was 47.8%.

Q: What about the viability, T/C [17] of the same compound?
A: The viability, T/C was 42.4%.

Q: And the viability, T/C [18]?
A: Its viability, T/C is 25.2%.

Q: What about the viability, T/C [19] of the same compound?
A: The viability, T/C was 17.3%.

Q: And the viability, T/C [20]?
A: The viability, T/C was 11.8%.

Q: What about the viability, T/C [29] of the same compound?
A: Its viability, T/C is 8.61%.

Q: What about the viability, T/C [21] of the same compound?
A: The viability, T/C was 37.7%.

Q: What about the viability, T/C [22] of the same compound?
A: Its viability, T/C is 30.7%.

Q: And the viability, T/C [23]?
A: The viability, T/C was 20.9%.

Q: And the viability, T/C [24]?
A: The viability, T/C was 14.8%.

Q: What about the viability, T/C [25] of the same compound?
A: The viability, T/C was 10.9%.

Q: What about the viability, T/C [30] of the same compound?
A: Its viability, T/C is 8.71%.

Q: Cn1nccc1Nc1nccc(-c2cc3c(s2)C(C)(C)N(CCN2CCOCC2)C3=O)n1 + CC1OCC2(CCN(c3cnc(Sc4ccnc(N)c4Cl)c(N)n3)CC2)C1N was tested. Which pIC50 (second compound 0.1 µM) did it give?
A: The pIC50 was 6.10.

Q: What about the pIC50 (second compound 0.316 µM) of the same compound?
A: The pIC50 was 6.48.

Q: And the pIC50 (second compound 1 µM)?
A: Its pIC50 is 7.01.

Q: And the pIC50 (second compound 3.16 µM)?
A: Its pIC50 is greater than 7.50.

Q: What about the pIC50 (second compound 10 µM) of the same compound?
A: Its pIC50 is greater than 7.50.

Q: And the viability, T/C [5]?
A: Its viability, T/C is 94.3%.

Q: What about the viability, T/C [26] of the same compound?
A: The viability, T/C was 85.4%.

Q: What about the viability, T/C (second compound 0.1 µM, first compound 0.316 µM) of the same compound?
A: The viability, T/C was 70%.

Q: What about the viability, T/C (second compound 0.1 µM, first compound 1 µM) of the same compound?
A: The viability, T/C was 48.6%.

Q: And the viability, T/C (second compound 0.1 µM, first compound 3.16 µM)?
A: Its viability, T/C is 21.4%.

Q: What about the viability, T/C (second compound 0.1 µM, first compound 10 µM) of the same compound?
A: Its viability, T/C is 24.1%.

Q: And the viability, T/C [10]?
A: Its viability, T/C is 85.2%.

Q: And the viability, T/C [27]?
A: The viability, T/C was 71.6%.

Q: And the viability, T/C (second compound 0.316 µM, first compound 0.316 µM)?
A: The viability, T/C was 51.8%.

Q: And the viability, T/C (second compound 0.316 µM, first compound 1 µM)?
A: Its viability, T/C is 30.8%.

Q: What about the viability, T/C (second compound 0.316 µM, first compound 3.16 µM) of the same compound?
A: Its viability, T/C is 21.8%.

Q: What about the viability, T/C (second compound 0.316 µM, first compound 10 µM) of the same compound?
A: Its viability, T/C is 20.5%.

Q: And the viability, T/C [15]?
A: The viability, T/C was 62.9%.

Q: And the viability, T/C [28]?
A: Its viability, T/C is 48.4%.

Q: What about the viability, T/C (second compound 1 µM, first compound 0.316 µM) of the same compound?
A: The viability, T/C was 36%.

Q: And the viability, T/C (second compound 1 µM, first compound 1 µM)?
A: Its viability, T/C is 21.2%.

Q: What about the viability, T/C (second compound 1 µM, first compound 3.16 µM) of the same compound?
A: Its viability, T/C is 18.1%.

Q: And the viability, T/C (second compound 1 µM, first compound 10 µM)?
A: The viability, T/C was 18.7%.

Q: And the viability, T/C [20]?
A: The viability, T/C was 40.2%.

Q: And the viability, T/C [29]?
A: The viability, T/C was 35.4%.

Q: And the viability, T/C (second compound 3.16 µM, first compound 0.316 µM)?
A: The viability, T/C was 31.9%.

Q: And the viability, T/C (second compound 3.16 µM, first compound 1 µM)?
A: Its viability, T/C is 15.7%.

Q: What about the viability, T/C (second compound 3.16 µM, first compound 3.16 µM) of the same compound?
A: The viability, T/C was 14.9%.

Q: And the viability, T/C (second compound 3.16 µM, first compound 10 µM)?
A: Its viability, T/C is 16.6%.

Q: What about the viability, T/C [25] of the same compound?
A: The viability, T/C was 29.6%.

Q: And the viability, T/C [30]?
A: The viability, T/C was 35.7%.

Q: What about the viability, T/C (second compound 10 µM, first compound 0.316 µM) of the same compound?
A: Its viability, T/C is 18.7%.

Q: What about the viability, T/C (second compound 10 µM, first compound 1 µM) of the same compound?
A: The viability, T/C was 17.1%.

Q: And the viability, T/C (second compound 10 µM, first compound 3.16 µM)?
A: The viability, T/C was 13.7%.

Q: And the viability, T/C (second compound 10 µM, first compound 10 µM)?
A: The viability, T/C was 11.9%.
